# Values of other authors, collected in patent US8288342B2, “Methods for treating vasomotor symptoms in castrated prostatic cancer patients with low dose cyproterone acetate” (priority 2008, dated 2012).
# Tested on: hot flashes
# Settings: 37 subjects with bothersome hot flashes; cited from earlier work
structure (smiles),measurement,value
"CC(=O)O[C@]1(C(C)=O)CC[C@H]2[C@@H]3C=C(C)C4=CC(=O)CC[C@]4(C)[C@H]3CC[C@@]21C [MA, megestrol acetate]",Therapeutic efficacy: reduction in hot flashes,70%
